The subject of this assay is primary rat mixed cortical cells. Kind of assay: In vitro myelination assay (MBP positive myelin strands, fold myelin pixels above background). It counts as cell-based. Particulars: for fold induction at 1 µM / fold induction at 10 µM: Rattus norvegicus, read-out: Fold myelin pixels above background relative to baseline of no added compound. In outline:
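Fourteen-day treatment of primary P1 rat mixed cortical cultures, re-dosed at days 6 and 10, at 1.0 μM and 10.0 μM. MBP immunofluorescence was imaged at 10× and myelin strands quantified by software, normalised to untreated wells as fold above background.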

For `CCC(CN1CCOCC1)Nc1cc(C)cc(Nc2ncn(-c3cc(F)cc(F)c3)n2)c1` (stereo not shown) [Compound 960, N3-[1-(3,5-difluorophenyl)-1,2,4-triazol-3-yl]-5-methyl-N1-[1-(morpholinomethyl)propyl]benzene-1,3-diamine], the fold induction at 1 µM (1.0 μM compound) lay within 1 to 10. In addition, for the setting “10.0 μM compound”, the fold induction at 10 µM was at most 1.
Consider `[2H]C1([2H])N(C(=O)C2CC2)C([2H])([2H])C([2H])([2H])N(c2cc(C)cc(Nc3ncn(-c4cc(F)cc(F)c4)n3)c2)C1([2H])[2H]` [Compound 961, cyclopropyl-[2,2,3,3,5,5,6,6-octadeuterio-4-[3-[[1-(3,5-difluorophenyl)-1,2,4-triazol-3-yl]amino]-5-methyl-phenyl]piperazin-1-yl]methanone], for which the fold induction at 1 µM (1.0 μM compound) lay within 1 to 10. For the same molecule, the fold induction at 10 µM (10.0 μM compound) was 1 to 10.
In the case of `CCOCCOC1CCN(c2cc(C)cc(Nc3ncn(-c4cc(F)cc(F)c4)n3)c2)CC1` [Compound 962, 1-(3,5-difluorophenyl)-N-[3-[4-(2-ethoxyethoxy)-1-piperidyl]-5-methyl-phenyl]-1,2,4-triazol-3-amine], the fold induction at 1 µM (1.0 μM compound) fell in the range of 1 to 10. Also, the fold induction at 10 µM (10.0 μM compound) lay in the range of 1 to 10.
With `Cc1cc(OCC(=O)N2CCCC2)cc(Nc2ncn(-c3cc(F)cc(F)c3)n2)c1C` [Compound 965, 2-[3-[[1-(3,5-difluorophenyl)-1,2,4-triazol-3-yl]amino]-4,5-dimethyl-phenoxy]-1-pyrrolidin-1-yl-ethanone], the fold induction at 1 µM (1.0 μM compound) is 10 to 100. Besides, the fold induction at 10 µM (10.0 μM compound) lay within 10 to 100.
With `Cc1cc(Nc2ncn(-c3cccnc3)n2)cc(N2CC3(C2)CN(C(C)C)C3)c1` [Compound 966, N-[3-(2-isopropyl-2,6-diazaspiro[3.3]heptan-6-yl)-5-methyl-phenyl]-1-(3-pyridyl)-1,2,4-triazol-3-amine], the fold induction at 1 µM (1.0 μM compound) fell in the range of 1 to 10. In addition, the fold induction at 10 µM (10.0 μM compound) was at most 1.
For `Cc1cc(Nc2ncn(-c3cnccn3)n2)cc(N2CC3(C2)CN(C(C)C)C3)c1` [Compound 967, N-[3-(2-isopropyl-2,6-diazaspiro[3.3]heptan-6-yl)-5-methyl-phenyl]-1-pyrazin-2-yl-1,2,4-triazol-3-amine], the fold induction at 1 µM (1.0 μM compound) lay within 10 to 100. Also, where the note is “10.0 μM compound”, the fold induction at 10 µM is at most 1.
The like results for `Cc1cc(NCC2CN(C3CC3)CCO2)cc(Nc2ncn(-c3cc(F)cc(F)c3)n2)c1` (stereo not shown) [Compound 968, N3-[(4-cyclopropylmorpholin-2-yl)methyl]-N1-[1-(3,5-difluorophenyl)-1,2,4-triazol-3-yl]-5-methyl-benzene-1,3-diamine] were, in that order, 1 to 10 and 1 to 10.
The like results for `Cc1cc(Nc2ncn(-c3cc(F)cc(F)c3)n2)c(F)c(N(C)C2COC2)c1` [Compound 969, N3-[1-(3,5-difluorophenyl)-1,2,4-triazol-3-yl]-2-fluoro-N1,5-dimethyl-N1-(oxetan-3-yl)benzene-1,3-diamine] were, in that order, 1 to 10 and at most 1.
In the case of `Cc1cc(Nc2ncn(-c3cc(F)cc(F)c3)n2)cc(NC2CCOC(C)(C)C2)c1` (stereo not shown) [Compound 970, N3-[1-(3,5-difluorophenyl)-1,2,4-triazol-3-yl]-N1-(2,2-dimethyltetrahydropyran-4-yl)-5-methyl-benzene-1,3-diamine], under “1.0 μM compound”, the fold induction at 1 µM is 10 to 100. The fold induction at 10 µM (10.0 μM compound) was at most 1.
In the same order, the values of `CC(=O)N1CC(Oc2cc(C)c(C)c(Nc3ncn(-c4cc(F)cc(F)c4)n3)c2)C1` [Compound 971, 1-[3-[3-[[1-(3,5-difluorophenyl)-1,2,4-triazol-3-yl]amino]-4,5-dimethyl-phenoxy]azetidin-1-yl]ethanone] are 1 to 10 and 1 to 10.
Regarding `Cc1cc(Nc2ncn(-c3cc(F)cc(F)c3)n2)cc(N2CCOC(C3CCCO3)C2)c1` (stereo not shown) [Compound 972, 1-(3,5-difluorophenyl)-N-[3-methyl-5-(2-tetrahydrofuran-2-ylmorpholin-4-yl)phenyl]-1,2,4-triazol-3-amine], the “Fold myelin pixels above background relative to baseline of no added compound” value is, setting by setting: (1.0 μM compound) “− (≤1)”; (10.0 μM compound) “+ (>1 to 10x)”.
